According to PubChem BioAssay AID248 (DTP/NCI, 2004):
“And” between values parts separate entries of the source, which are not always exact repeats. Equal values may be shown once. Inconclusive results and toxic doses are left out. Cut-off read from the data, not from the text of the source: active = T/C of 150% or more; inactive = T/C below 125%.

System: L1210 leukemia ip in BDF1 mice, survival T/C
Experiment: NCI In Vivo Anticancer Drug Screen. Data for tumor model L1210 Leukemia (intraperitoneal) in B6D2F1 (BDF1) mice
Settings: endpoint: mean survival time, higher = longer survival
How it was run: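 Transplantable tumor model; survival measured in treated vs vehicle control mice. Value = treated/control.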

[1] = dose: 100.0 mg/kg/injection, schedule: Q01DX001 (ip), vehicle: carboxymethylcellulose (CMC)
[2] = dose: 200.0 mg/kg/injection, schedule: Q01DX001 (ip), vehicle: carboxymethylcellulose (CMC)
[3] = dose: 400.0 mg/kg/injection, schedule: Q01DX001 (ip), vehicle: carboxymethylcellulose (CMC)
[4] = dose: 100.0 mg/kg/injection, schedule: Q01DX009 (ip), vehicle: Klucel (hydroxypropylcellulose) (HPC)
[5] = dose: 100.0 mg/kg/injection, schedule: Q04DX003 (ip), vehicle: Klucel (hydroxypropylcellulose) (HPC)
[6] = dose: 200.0 mg/kg/injection, schedule: Q01DX009 (ip), vehicle: Klucel (hydroxypropylcellulose) (HPC)
[7] = dose: 200.0 mg/kg/injection, schedule: Q04DX003 (ip), vehicle: Klucel (hydroxypropylcellulose) (HPC)
[8] = dose: 400.0 mg/kg/injection, schedule: Q04DX003 (ip), vehicle: Klucel (hydroxypropylcellulose) (HPC)
[9] = dose: 100.0 mg/kg/injection, schedule: Q04DX002 (ip), vehicle: Klucel (hydroxypropylcellulose) (HPC)
[10] = dose: 200.0 mg/kg/injection, schedule: Q04DX002 (ip), vehicle: Klucel (hydroxypropylcellulose) (HPC)
[11] = dose: 400.0 mg/kg/injection, schedule: Q04DX002 (ip), vehicle: Klucel (hydroxypropylcellulose) (HPC)
[12] = dose: 100.0 mg/kg/injection, schedule: Q01DX009 (ip), vehicle: saline
[13] = dose: 100.0 mg/kg/injection, schedule: Q04DX003 (ip), vehicle: saline
[14] = dose: 200.0 mg/kg/injection, schedule: Q01DX009 (ip), vehicle: saline
[15] = dose: 200.0 mg/kg/injection, schedule: Q04DX003 (ip), vehicle: saline
[16] = dose: 400.0 mg/kg/injection, schedule: Q04DX003 (ip), vehicle: saline
[17] = dose: 100.0 mg/kg/injection, schedule: Q01DX001 (ip), vehicle: Klucel (hydroxypropylcellulose) (HPC)
[18] = dose: 200.0 mg/kg/injection, schedule: Q01DX001 (ip), vehicle: Klucel (hydroxypropylcellulose) (HPC)
[19] = dose: 400.0 mg/kg/injection, schedule: Q01DX001 (ip), vehicle: Klucel (hydroxypropylcellulose) (HPC)
[20] = dose: 6.25 mg/kg/injection, schedule: Q01DX009 (ip), vehicle: saline with Tween-80
[21] = dose: 12.5 mg/kg/injection, schedule: Q01DX009 (ip), vehicle: saline with Tween-80
[22] = dose: 25.0 mg/kg/injection, schedule: Q01DX009 (ip), vehicle: saline with Tween-80
[23] = dose: 50.0 mg/kg/injection, schedule: Q01DX009 (ip), vehicle: saline

Measured: T/C

CN(C)S(=O)(=O)c1ccccc1C(O)(c1ccccc1)c1ccccc1
inactive: [1] 95 % of control | [2] 93 % of control | [3] 98 % of control

COC(=O)c1ccc(C(=O)O)[n+]([O-])c1
inactive: [4] 93 % of control | [5] 97 % of control | [6] 88 % of control | [7] 103 % of control | [8] 97 % of control

CN1C2CCCCC1CC(=O)NC2 (configuration not stated)
inactive: dose: 75.0 mg/kg/injection, schedule: Q01DX001 (ip), vehicle: saline 98 % of control | dose: 150.0 mg/kg/injection, schedule: Q01DX001 (ip), vehicle: saline 101 % of control

NNc1n[nH]c(=O)[nH]c1=O
inactive: dose: 100.0 mg/kg/injection, schedule: Q01DX001 (ip), vehicle: saline 102 % of control | dose: 200.0 mg/kg/injection, schedule: Q01DX001 (ip), vehicle: saline 96 % of control | dose: 400.0 mg/kg/injection, schedule: Q01DX001 (ip), vehicle: saline 96 % of control

Cc1ccc(/C=C2\NC(=O)NC2=O)cc1
inactive: dose: 25.0 mg/kg/injection, schedule: Q01DX009 (ip), vehicle: water 94 % of control | dose: 50.0 mg/kg/injection, schedule: Q01DX009 (ip), vehicle: water 93 % of control | dose: 100.0 mg/kg/injection, schedule: Q01DX009 (ip), vehicle: water 100 % of control | dose: 200.0 mg/kg/injection, schedule: Q01DX009 (ip), vehicle: water 94 % of control | dose: 400.0 mg/kg/injection, schedule: Q01DX009 (ip), vehicle: water 101 % of control

Nc1cccc(C(=O)c2cccc(N)c2)c1
inactive: [1] 96 % of control | [2] 94 % of control | [3] 88 % of control

CCCCOP(=O)(Nc1ccc([N+](=O)[O-])cc1)OCCCC
inactive: dose: 100.0 mg/kg/injection, schedule: Q04DX002 (ip), vehicle: saline with Tween-80 101 % of control | dose: 200.0 mg/kg/injection, schedule: Q04DX002 (ip), vehicle: saline with Tween-80 94 % of control | dose: 400.0 mg/kg/injection, schedule: Q04DX002 (ip), vehicle: saline with Tween-80 90 % of control

COc1ccc(-c2cc3c(OC)ccc(OC)c3[nH]2)cc1
inactive: [9] 93 % of control | [10] 102 % of control | [11] 93 % of control

Cc1cccc(C(=O)O)n1
inactive: [12] 103 % of control | [13] 104 % of control | [14] 113 % of control | [15] 101 % of control | dose: 400.0 mg/kg/injection, schedule: Q01DX009 (ip), vehicle: saline 93 % of control | [16] 95 % of control

COC1=NS(=O)(=O)N=C(c2ccc(OC)cc2)O1
inactive: [9] 103 % of control | [10] 100 % of control | [11] 89 % of control

Nc1c(Cl)ncnc1NC1COC(CO)C1O (configuration not stated)
inactive: [17] 100 % of control | [18] 110 % of control | [19] 100 % of control

Cc1nc(N)[nH]c(=O)c1Br
inactive: [4] 97 % of control | [5] 93 % of control | [6] 100 % of control | [7] 98 % of control | [8] 98 % of control

CNC(=O)NC1CC(OC2CC(O)(C(C)=O)Cc3c(O)c4c(c(O)c32)C(=O)c2c(OC)cccc2C4=O)OC(C)C1O (configuration not stated)
inactive: dose: 2.0 mg/kg/injection, schedule: Q04DX003 (ip), vehicle: water 103 % of control | dose: 3.12 mg/kg/injection, schedule: Q01DX009 (ip), vehicle: saline with Tween-80 108 % of control | dose: 4.0 mg/kg/injection, schedule: Q04DX003 (ip), vehicle: water 98 % of control | [20] 97 % of control | dose: 8.0 mg/kg/injection, schedule: Q04DX003 (ip), vehicle: water 107 % of control | [21] 103 % of control | dose: 12.5 mg/kg/injection, schedule: Q04DX003 (ip), vehicle: saline with Tween-80 100 % of control | dose: 16.0 mg/kg/injection, schedule: Q04DX003 (ip), vehicle: water 95 % of control and 103 % of control | [22] 112 % of control | dose: 25.0 mg/kg/injection, schedule: Q04DX003 (ip), vehicle: saline with Tween-80 100 % of control | dose: 32.0 mg/kg/injection, schedule: Q04DX003 (ip), vehicle: water 100 % of control | dose: 50.0 mg/kg/injection, schedule: Q01DX009 (ip), vehicle: saline with Tween-80 111 % of control | dose: 50.0 mg/kg/injection, schedule: Q04DX003 (ip), vehicle: saline with Tween-80 100 % of control | dose: 64.0 mg/kg/injection, schedule: Q04DX003 (ip), vehicle: water 104 % of control | dose: 100.0 mg/kg/injection, schedule: Q04DX003 (ip), vehicle: saline with Tween-80 100 % of control | dose: 125.0 micrograms/kg/injection, schedule: Q04DX003 (ip), vehicle: water 104 % of control | dose: 250.0 micrograms/kg/injection, schedule: Q04DX003 (ip), vehicle: water 104 % of control | dose: 500.0 micrograms/kg/injection, schedule: Q04DX003 (ip), vehicle: water 105 % of control | dose: 1000.0 micrograms/kg/injection, schedule: Q04DX003 (ip), vehicle: water 104 % of control | dose: 2000.0 micrograms/kg/injection, schedule: Q04DX003 (ip), vehicle: water 101 % of control

O=C(Oc1cccc(OC(=O)c2ccc(Cl)cc2)c1)c1ccc(Cl)cc1
inactive: [17] 100 % of control | [4] 112 % of control | [18] 100 % of control | [6] 110 % of control | [19] 93 % of control | dose: 400.0 mg/kg/injection, schedule: Q01DX009 (ip), vehicle: Klucel (hydroxypropylcellulose) (HPC) 108 % of control

CC(C)(C)CC(C)(C)c1ccc(OCCOc2ccccc2NS(=O)(=O)c2ccc(N)cc2)cc1
inactive: [23] 94 % of control | [12] 91 % of control | [14] 91 % of control

Cc1cccc(N2CCN(CCO)CC2)c1
inactive: [23] 106 % of control

O=C(COCC(=O)N/N=C/c1ccc(Cl)c(Cl)c1)N/N=C/c1ccc(Cl)c(Cl)c1
inactive: [20] 92 % of control | [21] 90 % of control | [22] 89 % of control | dose: 200.0 mg/kg/injection, schedule: Q04DX003 (ip), vehicle: saline with Tween-80 86 % of control

O=C(CC(O)(C(F)(F)F)C(F)(F)F)c1cccc2ccccc12
inactive: [5] 97 % of control | [7] 90 % of control | [8] 90 % of control

COC(=O)NC1CC(CO)CC1O (configuration not stated)
inactive: dose: 50.0 mg/kg/injection, schedule: Q01DX009 (ip), vehicle: Klucel (hydroxypropylcellulose) (HPC) 91 % of control | [4] 89 % of control | [6] 91 % of control

CN(C)c1ccc(S(=O)(=O)Cl)cc1[N+](=O)[O-]
inactive: [13] 104 % of control | [15] 107 % of control | [16] 101 % of control
